From patent US20160271263A1 (Novo Nordisk A/S, priority 2010, published 2016)
Numbered stars: 1 amine (or outer) side, 2 acyl side, 3 side chain; on linkers, the order of the positions; unused ones are H or OH. Side chains are listed from the residue outwards. Peptide text beside a SMILES is read from it. * marks the point of attachment. C18 diacid = O=C(O)CCCCCCCCCCCCCCCCC(=O)*; γGlu = O=C(O)[C@H](CCC(=O)[*:2])N[*:1]; AEEA = NCCOCCOCC(=O)O

biological target: glucagon receptor (Homo sapiens, UniProt P47871); assay: cell-based
Sequence (P47871 26-477): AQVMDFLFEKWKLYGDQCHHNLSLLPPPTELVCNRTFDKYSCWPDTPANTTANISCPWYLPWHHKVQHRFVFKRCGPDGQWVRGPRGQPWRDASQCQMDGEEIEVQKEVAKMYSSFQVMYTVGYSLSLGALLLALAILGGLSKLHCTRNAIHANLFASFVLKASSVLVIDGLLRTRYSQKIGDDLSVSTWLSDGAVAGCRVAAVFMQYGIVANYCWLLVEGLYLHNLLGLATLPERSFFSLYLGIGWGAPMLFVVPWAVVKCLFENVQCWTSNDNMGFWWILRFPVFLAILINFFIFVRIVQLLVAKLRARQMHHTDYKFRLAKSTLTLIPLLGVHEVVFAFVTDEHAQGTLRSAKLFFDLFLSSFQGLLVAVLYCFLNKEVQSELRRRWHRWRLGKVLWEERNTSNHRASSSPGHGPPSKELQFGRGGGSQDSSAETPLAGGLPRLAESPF

| Structure (SMILES) | EC50 [nM] |
| --- | --- |
| CC(C)C[C@H](NC(=O)[C@H](Cc1ccc(O)cc1)NC(=O)[C@H](CCCCN)NC(=O)[C@H](CO)NC(=O)[C@H](Cc1ccc(O)cc1)NC(=O)[C@H](CC(=O)O)NC(=O)[C@H](CO)NC(=O)[C@@H](NC(=O)[C@H](Cc1ccccc1)NC(=O)[C@@H](NC(=O)CNC(=O)[C@H](CCC(N)=O)NC(=O)[C@H](CO)NC(=O)[C@@H](N)Cc1c[nH]cn1)[C@@H](C)O)[C@@H](C)O)C(=O)N[C@@H](CC(=O)O)C(=O)N[C@@H](CO)C(=O)N[C@@H](CCCNC(=N)N)C(=O)N[C@@H](CCCNC(=N)N)C(=O)N[C@@H](C)C(=O)N[C@@H](CCC(N)=O)C(=O)N[C@@H](CC(=O)O)C(=O)N[C@@H](Cc1ccccc1)C(=O)N[C@H](C(=O)N[C@@H](CCC(N)=O)C(=O)N[C@@H](Cc1c[nH]c2ccccc12)C(=O)N[C@@H](CC(C)C)C(=O)N[C@@H](CCCCNC(=O)CC[C@H](NC(=O)CC[C@H](NC(=O)COCCOCCNC(=O)COCCOCCNC(=O)CC[C@H](NC(=O)CCCCCCCCCCCCCCCCC(=O)O)C(=O)O)C(=O)O)C(=O)O)C(=O)N[C@@H](CC(N)=O)C(=O)N1CCC[C@H]1C(=O)O)C(C)C [Example 85, N^ε27-[(4S)-4-carboxy-4-[[(4S)-4-carboxy-4-[[2-[2-[2-[[2-[2-[2-[[(4S)-4-carboxy-4-(17-carboxyheptadecanoylamino)butanoyl]amino]ethoxy]ethoxy]acetyl]amino]ethoxy]ethoxy]acetyl]amino]butanoyl]amino]butanoyl]-[Lys^27,Pro^29]-Glucagon] | 1.17 |
| CC(C)C[C@H](NC(=O)[C@H](Cc1ccc(O)cc1)NC(=O)[C@H](CCCCN)NC(=O)[C@H](CO)NC(=O)[C@H](Cc1ccc(O)cc1)NC(=O)[C@H](CC(=O)O)NC(=O)[C@H](CO)NC(=O)[C@@H](NC(=O)[C@H](Cc1ccccc1)NC(=O)[C@@H](NC(=O)CNC(=O)[C@H](CCC(N)=O)NC(=O)[C@H](CO)NC(=O)[C@@H](N)Cc1c[nH]cn1)[C@@H](C)O)[C@@H](C)O)C(=O)N[C@@H](CC(=O)O)C(=O)N[C@@H](CCC(=O)O)C(=O)N[C@@H](CCCCN)C(=O)N[C@@H](CCCNC(=N)N)C(=O)N[C@@H](C)C(=O)N[C@@H](CCC(N)=O)C(=O)N[C@@H](CCC(=O)O)C(=O)N[C@@H](Cc1ccccc1)C(=O)N[C@H](C(=O)N[C@@H](CCCCNC(=O)COCCOCCNC(=O)COCCOCCNC(=O)CC[C@H](NC(=O)CCCCCCCCCCCCCCCCC(=O)O)C(=O)O)C(=O)N[C@@H](Cc1c[nH]c2ccccc12)C(=O)N[C@@H](CC(C)C)C(=O)N[C@@H](CC(C)C)C(=O)N[C@@H](CC(N)=O)C(=O)N[C@H](C(N)=O)[C@@H](C)O)C(C)C [Example 38, N^ε24-([2-[2-[2-[[2-[2-[2-[[(4S)-5-hydroxy-4-[(18-hydroxy-18-oxooctadecanoyl)amino]-5-oxopentanoyl]amino]ethoxy]ethoxy]acetyl]amino]ethoxy]ethoxy]acetyl])[Glu^16, Lys^17, Glu^21, Lys^24,Leu^27] Glucagon peptide amide] (H-HSQGTFTSDYSKYLDEKRAQEFVK([AEEA-AEEA-γGlu-C18 diacid])WLLNT-NH2; N-terminus assumed) | 0.015 |
| CC(C)C[C@H](NC(=O)[C@H](Cc1ccc(O)cc1)NC(=O)[C@H](CCCCN)NC(=O)[C@H](CO)NC(=O)[C@H](Cc1ccc(O)cc1)NC(=O)[C@H](CC(=O)O)NC(=O)[C@H](CO)NC(=O)[C@@H](NC(=O)[C@H](Cc1ccccc1)NC(=O)[C@@H](NC(=O)CNC(=O)[C@H](CCC(N)=O)NC(=O)[C@H](CO)NC(=O)[C@@H](N)Cc1c[nH]cn1)[C@@H](C)O)[C@@H](C)O)C(=O)N[C@@H](CC(=O)O)C(=O)N[C@@H](CO)C(=O)N[C@@H](CCCNC(=N)N)C(=O)N[C@@H](CCCNC(=N)N)C(=O)N[C@@H](C)C(=O)N[C@@H](CCC(N)=O)C(=O)N[C@@H](CC(=O)O)C(=O)N[C@@H](Cc1ccccc1)C(=O)N[C@H](C(=O)N[C@@H](CCC(N)=O)C(=O)N[C@@H](CCCCNC(=O)CC[C@H](NC(=O)CC[C@H](NC(=O)COCCOCCNC(=O)COCCOCCNC(=O)CC[C@H](NC(=O)CCCCCCCCCCCCCCCCC(=O)O)C(=O)O)C(=O)O)C(=O)O)C(=O)N[C@@H](CC(C)C)C(=O)N[C@@H](CC(C)C)C(=O)N[C@@H](CC(N)=O)C(=O)N[C@H](C(=O)O)[C@@H](C)O)C(C)C [Example 76, N^ε25-[(4S)-4-carboxy-4-[[(4S)-4-carboxy-4-[[2-[2-[2-[[2-[2-[2-[[(4S)-4-carboxy-4-(17-carboxyheptadecanoylamino)butanoyl]amino]ethoxy]ethoxy]acetyl]amino]ethoxy]ethoxy]acetyl]amino]butanoyl]amino]butanoyl]-[Lys^25,Leu^27]-Glucagon] | 0.988 |

More lines, in order of falling EC50, values ahead:

| EC50 [nM] | Structure (SMILES) |
| --- | --- |
| 0.081 | CC(C)C[C@H](NC(=O)[C@H](Cc1ccc(O)cc1)NC(=O)[C@H](CCCCN)NC(=O)[C@H](CO)NC(=O)[C@H](Cc1ccc(O)cc1)NC(=O)[C@H](CC(=O)O)NC(=O)[C@H](CO)NC(=O)[C@@H](NC(=O)[C@H](Cc1ccccc1)NC(=O)[C@@H](NC(=O)CNC(=O)[C@H](CCC(N)=O)NC(=O)[C@H](CO)NC(=O)[C@@H](N)Cc1c[nH]cn1)[C@@H](C)O)[C@@H](C)O)C(=O)N[C@@H](CC(=O)O)C(=O)N[C@@H](CCCCNC(=O)COCCOCCNC(=O)COCCOCCNC(=O)CC[C@H](NC(=O)CC[C@H](NC(=O)CC[C@H](NC(=O)CCCCCCCCCCCCCCCCC(=O)O)C(=O)O)C(=O)O)C(=O)O)C(=O)N[C@@H](CCCNC(=N)N)C(=O)N[C@@H](CCCNC(=N)N)C(=O)N[C@@H](C)C(=O)N[C@@H](CCC(N)=O)C(=O)N[C@@H](CC(=O)O)C(=O)N[C@@H](Cc1ccccc1)C(=O)N[C@H](C(=O)N[C@@H](CCC(N)=O)C(=O)N[C@@H](Cc1c[nH]c2ccccc12)C(=O)N[C@@H](CC(C)C)C(=O)N[C@@H](CC(C)C)C(=O)N[C@@H](CC(N)=O)C(=O)N[C@H](C(=O)O)[C@@H](C)O)C(C)C [Example 77, N^ε16-[2-[2-[2-[[2-[2-[2-[[(4S)-4-carboxy-4-[[(4S)-4-carboxy-4-[[(4S)-4-carboxy-4-(17-carboxyheptadecanoylamino)butanoyl]amino]butanoyl]amino]butanoyl]amino]ethoxy]ethoxy]acetyl]amino]ethoxy]ethoxy]acetyl]-[Lys^16,Leu^27]-Glucagon] (H-HSQGTFTSDYSKYLDK([AEEA-AEEA-γGlu-γGlu-γGlu-C18 diacid])RRAQDFVQWLLNT-OH; N-terminus and C-terminus assumed) |
| 0.074 | CC(C)C[C@H](NC(=O)[C@H](Cc1ccc(O)cc1)NC(=O)[C@H](CCCCN)NC(=O)[C@H](CO)NC(=O)[C@H](Cc1ccc(O)cc1)NC(=O)[C@H](CC(=O)O)NC(=O)[C@H](CO)NC(=O)[C@@H](NC(=O)[C@H](Cc1ccccc1)NC(=O)[C@@H](NC(=O)CNC(=O)[C@H](CCC(N)=O)NC(=O)[C@H](CO)NC(=O)[C@@H](N)Cc1c[nH]cn1)[C@@H](C)O)[C@@H](C)O)C(=O)N[C@@H](CC(=O)O)C(=O)N[C@@H](CO)C(=O)N[C@@H](CCCNC(=N)N)C(=O)N[C@@H](CCCNC(=N)N)C(=O)N[C@@H](C)C(=O)N[C@@H](CCC(N)=O)C(=O)N[C@@H](CCC(=O)O)C(=O)N[C@@H](Cc1ccccc1)C(=O)N[C@H](C(=O)N[C@@H](CCCCNC(=O)COCCOCCNC(=O)COCCOCCNC(=O)CC[C@H](NC(=O)CCCCCCCCCCCCCCCCC(=O)O)C(=O)O)C(=O)N[C@@H](CCCNC(=N)N)C(=O)N[C@@H](CC(C)C)C(=O)N[C@@H](CC(C)C)C(=O)N[C@@H](CC(N)=O)C(=O)N[C@H](C(=O)O)[C@@H](C)O)C(C)C [Example 58, N^ε24-([2-[2-[2-[[2-[2-[2-[[(4S)-5-hydroxy-4-[(18-hydroxy-18-oxooctadecanoyl)amino]-5-oxopentanoyl]amino]ethoxy]ethoxy]acetyl]amino]ethoxy]ethoxy]acetyl]) [Glu^21,Lys^24,Arg^25,Leu^27] Glucagon] |
